Earlier results as cited in patent US20110318267A1, “PH-RESPONSIVE NANOSTRUCTURES” (PRESIDENT AND FELLOWS OF HARVARD COLLEGE, priority 2008, published 2011).

In the case of C=C(C)C(=O)OCCN(C)C [DMAEMA, dimethylaminoethyl methacrylate], the pKa is listed as 7.5.
